Experimental data from ChEMBL document CHEMBL1141499, “Imidazopyridines: a novel class of hNav1.7 channel blockers” (Bioorg Med Chem Lett, 2008).

Assays:
[1] = Plasma clearance in Sprague-Dawley rat at 1.0 mg/kg, iv or 3.0 mg/kg, po; assay type: ADME, organism-based
[2] = Bioavailability in Sprague-Dawley rat at 3.0 mg/kg, po; assay type: ADME, organism-based; conditions: in vivo

clearance [1] | bioavailability [2] | SMILES
3 mL/min/kg | 44% | CC(C)(C)OC(=O)N[C@H](Cc1ccccc1C(F)(F)F)C(=O)NCc1nc2cccnc2n1C1(c2ccccc2)CC1
22 mL/min/kg | 57% | C[C@H](c1ccccc1)n1c(CNC(=O)[C@@H](Cc2ccccc2C(F)(F)F)NC(=O)OC(C)(C)C)nc2cccnc21
113 mL/min/kg | 7% | CC(C)(C)OC(=O)N[C@H](Cc1ccccc1C(F)(F)F)C(=O)NCc1nc2cccnc2n1CC(F)(F)F
114 mL/min/kg | 25% | CC(C)(C)OC(=O)N[C@H](Cc1ccccc1C(F)(F)F)C(=O)NCc1nc2cccnc2n1CC1CC1
87 mL/min/kg | 10% | CC(C)(C)OC(=O)N[C@H](Cc1ccccc1C(F)(F)F)C(=O)NCc1nc2cccnc2n1CC(F)(F)C(F)(F)F
4.2 mL/min/kg | 54% | O=C(NCc1nc2cccnc2n1C1(c2ccccc2)CC1)[C@@H](Cc1c(F)cccc1F)NC(=O)C1(C(F)(F)F)CC1
21 mL/min/kg | 36% | C[C@@H](c1ccccc1)n1c(CNC(=O)[C@@H](Cc2ccccc2C(F)(F)F)NC(=O)OC(C)(C)C)nc2cccnc21
6.6 mL/min/kg | 85% | O=C(NCc1nc2cccnc2n1C1(c2ccccc2)CC1)[C@@H](Cc1c(F)ccc(F)c1F)NC(=O)C1(C(F)(F)F)CC1
64 mL/min/kg | 17% | CC(C)(C)Cn1c(CNC(=O)[C@@H](Cc2ccccc2C(F)(F)F)NC(=O)OC(C)(C)C)nc2cccnc21
36 mL/min/kg | 31% | CC(C)(C)OC(=O)N[C@H](Cc1ccccc1C(F)(F)F)C(=O)NCc1nc2cccnc2n1C(C)(C)C
7.5 mL/min/kg | 47% | CC(C)(C)OC(=O)N[C@H](Cc1ccccc1F)C(=O)NCc1nc2cccnc2n1C1(c2ccccc2)CC1
15 mL/min/kg | 41% | CC(C)(C)OC(=O)N[C@H](Cc1ccccc1C(F)(F)F)C(=O)NCc1nc2cccnc2n1Cc1ccccc1
9.3 mL/min/kg | 78% | O=C(NCc1nc2cccnc2n1C1(c2ccccc2)CC1)[C@@H](Cc1ccccc1Cl)NC(=O)C1(C(F)(F)F)CC1
